Laboratory results published in patent US8003634B2, “Analogs of benzoquinone-containing ansamycins and methods of use thereof” (Infinity Pharmaceuticals, Inc., priority 2003, dated 2011).
Where a name gives a salt, the structure may show the parent alone. Read-outs that look alike come from different tables or passages of the source.

Columns and labels:
MDA-MB-468 cells = test: MDA-MB-468 cell cytotoxicity, Alamar blue; format: cell-based; conditions: Homo sapiens, 72 h
Method: (§1) The human cancer cell lines SKBr3, MV4-11, K562, SK-MEL-28, LnCAP, and MDA-MB-468 were obtained from the American Type Culture Collection (Manassas, Va.). The multiple myeloma RPMI-8226 and MM1.s cells were from Dr. Teru Hideshima (Jerome Lipper Multiple Myeloma Center, Dana Farber Cancer Institute, Boston, Mass., USA.). All the cell lines were determined to be mycoplasma-free. The cells were maintained in RPMI-1640 medium supplemented with 10% heat-inactivated FBS, 50 units/mL streptomycin and 50 units/mL penicillin, and incubated at 37° C. in 5% CO2. Adherent cells were dissociated with 0.05% trypsin and 0.02% EDTA in phosphate buffer saline (PBS) without calcium and magnesium prior to plating for experimentation.
MDA-MB-468 Cells were incubated for 72 h with increasing concentrations of the test compound. For the viability studies Alamar blue was added and wells read after 6 h of incubation.

MM1.s cells = test: MM1.s cell cytotoxicity, Alamar Blue assay; format: cell-based; conditions: Homo sapiens, 72 h
Method: as §1
Alamar Blue assay. MM1.s cells (50,000/well) were incubated for 72 h with increasing concentrations of the test compound. Alamar blue was added to the wells and fluorescence measured 4 h after incubation at 37° C.

SKBr3 cells = test: SKBr3 cell cytotoxicity, Alamar blue; format: cell-based; conditions: Homo sapiens, SK-BR-3, 72 h
Method: as §1
SKBr3 Cells were incubated for 72 h with increasing concentrations of the test compound. For the viability studies Alamar blue was added and wells read after a 6 h incubation.

[1] = system: NCI 60 tumor cell line panel; conditions: Developmental Therapeutics Program Website, read-out: mean IC50 over all cell lines in the panel; cited from earlier work
MV4-11 cells = test: MV4-11 cell cytotoxicity, Alamar blue; format: cell-based; conditions: Homo sapiens, 72 h, 3 days
Method: as §1
MV4-11 cells were incubated for 3 days with increasing concentrations of the test compound. Cell viability was assessed using an Alamar blue read out.

K562 cells = test: K562 cell cytotoxicity, Alamar blue; format: cell-based; conditions: Homo sapiens
Method: as §1
K562 cells were incubated with increasing concentrations of the test compound. Cell viability was assessed using an Alamar blue read out

[2] = water / aqueous solutions
LnCAP cells = test: LnCAP cell cytotoxicity, Alamar blue; format: cell-based; conditions: Homo sapiens, 96 h, 4 days
Method: as §1
Increasing concentrations of the test compound added to LnCAP cells in culture for 4 days and the viability of the cells was measured using Alamar blue.

[3] = system: Native human Hsp90 protein isolated from HeLa cells; test: Competitive binding to HSP90, fluorescence polarization assay with BODIPY-GDM; conditions: competitive binding experiment
Method: A 20 nM BODIPY-GDM solution was freshly prepared in FP binding assay buffer [20 mM HEPES-KOH, pH 7.3, 1.0 mM EDTA, 100 mM potassium chloride, 5.0 mM magnesium chloride, 0.01% NP-40, 0.1 mg/mL Bovine γ-globulin (BGG), 1.0 mM DTT, and Complete™ protease inhibitor] from a 20 μM stock solution in DMSO. […] After 3-h incubation at 30° C., fluorescence anisotropy was measured on an EnVision 2100 multilabel plate reader equipped with a 485 nm excitation filter and a 535 nm P/S emission filter (Perkin Elmer, Boston, Mass.).
A dilution series for each compound was freshly prepared in FP binding assay buffer from 20 μM to 0.20 nM. […] After 3-h incubation at 30° C., fluorescence anisotropy was measured on an EnVision 2100 plate reader.
Assays were performed under nitrogen atmosphere in a LabMaster glove box (M. Braun, Stratham, N H). […] After 3-h incubation at 30° C., the microplate was brought out of the glove box, and fluorescence anisotropy was immediately measured on an EnVision 2100 plate reader.
Binding of BODIPY-GDM to Hsp90 results in simultaneous increases in fluorescence anisotropy (FA) and intensity (FI). […]
[formula] with Hill coefficient forced to 1 for simplicity. From the values of FImax (bound ligand) and FImin (free ligand), a Q factor is calculated by: […]
[formula] and FA being expressed as the weighted sum of contributions from the free and bound forms of ligand: […]

SK-MEL-28 cells = test: SK-MEL-28 cell cytotoxicity, Alamar blue; format: cell-based; conditions: Homo sapiens, SK-MEL-28 cells, 2, 3 or 4 days
Method: as §1
Increasing concentrations of the test compound was added to SK-MEL-28 cells in culture for 2, 3 or 4 days and the viability of the cells was measured using Alamar blue.

[4] = system: MDA-MB-468 breast carcinoma; test: Breast carcinoma model, subcutaneous MDA-MB-468 tumors; format: in vivo; conditions: MDA-MB-468 s.c. in female nu/nu athymic mice; 100 mg/kg IV twice weekly; after 120 days
Method: A study was performed in the MDA-MB-468 breast carcinoma model to assess the ability of the test compound to reduce subcutaneous tumor burden. In this study, female nu/nu athymic mice were implanted subcutaneously with MDA-MB-468 cells (1×10^7 cells). When the average tumor size reached 100 mm^3, animals were randomly assigned (N=10-15/group) to one of the following treatment groups; vehicle or the test compound at 100 mg/kg (300 mg/m^2) twice weekly every week. The test article or vehicle was administered intravenously (IV) via the tail vein in a volume of 0.2 mL over approximately 20 seconds (sec). The animals were sacrificed after 120 days and tumor volumes compared.
(§2) The results from the biological activity analysis of the hydroquinones of the invention are presented below. All values are expressed as the mean±SEM. Data analysis consisted of a one way analysis of variance and if appropriate followed by Dunnets test to assess differences between vehicle and treatment groups. Differences are considered significant at p<0.05.

[5] = system: human multiple myeloma cell line RPMI-8226; test: Multiple myeloma model, subcutaneous RPMI-8226 tumors; format: in vivo; conditions: RPMI-8226 s.c. in male SCID/NOD mice; 100 mg/kg IV three consecutive days per week; after 45 days
Method: The effects of the test compound were studied in a human multiple myeloma cell line RPMI-8226 in male SCID/NOD mice. In this study, male mice were implanted subcutaneously with RPMI-8226 cells (1×10^7 cells). When the average tumor size reached 100 mm^3, animals were randomly assigned to treatment groups (N=10-15/group) to receive either vehicle (50 mM citrate, 50 mM ascorbate, 2.4 mM EDTA adjusted to pH 3.0) or 100 mg/kg (300 mg/m^2) of the test compound three consecutive days per week. The test article or vehicle was administered intravenously (IV) via the tail vein in a volume of 0.2 mL over approximately 20 seconds (sec). The animals were sacrificed after 45 days and tumor volumes compared.
as §2

physchem = conditions: water / aqueous solutions
PC-3 cells = test: Prostate carcinoma, PC-3 xenograft models; format: in vivo; conditions: PC-3 s.c. in male nu/nu athymic mice; single agent 100 mg/kg twice weekly; after 64 days
Method: Two studies were performed in mouse PC-3 prostate xenograft models to assess the ability of the test compound to reduce subcutaneous tumor burden as a single agent or in combination with current standard of care. In both studies male nu/nu athymic mice were implanted subcutaneously with PC-3 cells (1×10^7 cells). When the average tumor size reached 100 mm^3 animals were randomly assigned to treatment groups (N=10-15/group). In the first study mice received either vehicle, the test compound 100 mg/kg (300 mg/m^2) twice weekly. The test article or vehicle was administered via the tail vein in a volume of 0.2 mL over approximately 20 sec. The animals were sacrificed after 64 days and tumor volumes compared.
A second study was performed in this model to assess the test compound in combination with the standard of care, Taxotere. […] The animals were sacrificed after 64 days and tumor volumes compared.

Lewis lung cells = test: Murine Lewis lung model; format: in vivo; conditions: Lewis lung cells s.c. in C57B1/6 mice; 75 mg/m^2 MWF for 3 cycles, tail vein; after 25 days
Method: A study was performed in the mouse Lewis lung model to assess the ability of the compounds of the present invention to reduce both subcutaneous tumor burden as well as the incidence of lung metastasis. In this study C57B1/6 mice were implanted subcutaneously with Lewis lung cells (1×10^6 cells). When the average tumor size reached 71 mm^3 animals (N=10-15/group) were randomly assigned to the following treatment groups: vehicle and compound 15 75 mg/m^2 Monday, Wednesday and Friday (MWF) for 3 cycles. Each cycle consisted of […] of treatment. The test article or vehicle was administered via the tail vein in a volume of 0.2 mL over approximately 30 sec. The animals were sacrificed after 25 days and tumor volumes were compared.
as §2

SKOV-3 cells = test: Ovarian carcinoma model, SKOV-3 xenograft; format: in vivo; conditions: SKOV-3 s.c. in female nu/nu athymic mice; 100 mg/kg IV twice weekly; after 88 days
Method: A study was performed in the SKOV-3 ovarian mouse xenograft model to assess the ability of the test compound to reduce subcutaneous tumor burden. In this study, female nu/nu athymic mice were implanted subcutaneously with SKOV-3 cells (1×10^7 cells). When the average tumor size reached 100 mm^3, animals were randomly assigned to treatment groups (N=10-15/group) to receive either vehicle, the test compound at 100 mg/kg (300 mg/m^2) twice weekly. The test article or vehicle was administered intravenously (IV) via the tail vein in a volume of 0.1 mL over approximately 10 seconds (sec). The animals were sacrificed after 88 days and tumor volumes compared.
as §2

SMILES | EC50 (MDA-MB-468 cells) | EC50 (MM1.s cells) | EC50 (SKBr3 cells) | IC50 [1] | EC50 (MV4-11 cells) | EC50 (K562 cells) | solubility [2] | EC50 (LnCAP cells) | HSP90 inhibition (summary in words) [3] | EC50 (SK-MEL-28 cells) | % Tumor Growth Compared to Vehicle [4] | % Tumor Growth Compared to Vehicle [5] | solubility (physchem) | % Tumor Growth Compared to Vehicle (PC-3 cells) | % Tumor Growth Compared to Vehicle (Lewis lung cells) | % Tumor Growth Compared to Vehicle (SKOV-3 cells)
C=CCNC1=C2C[C@@H](C)C[C@H](OC)[C@H](O)[C@@H](C)/C=C(\C)[C@H](OC(N)=O)[C@@H](OC)/C=C\C=C(/C)C(=O)NC(=CC1=O)C2=O [Compound 17-AAG, 17-allylamino-17-demethoxygeldanamycin, reference compound] | 356 nM | 306 nM | 34 nM | 120 nM | 38 nM | 50 nM | – | – | – | – | – | – | – | – | – | –
C=CCNc1c(O)cc2c(O)c1C[C@@H](C)C[C@H](OC)[C@H](O)[C@@H](C)/C=C(\C)[C@H](OC(N)=O)[C@@H](OC)/C=C\C=C(/C)C(=O)N2 [hydroquinone of 17-AAG, 17-allylamino-18,21-dihydro-17-demethoxygeldanamycin] | – | – | – | – | – | – | 1 to 3 mg/mL | – | – | – | – | – | – | – | – | –
C=CCNc1c(O)cc2c(O)c1C[C@@H](C)C[C@H](OC)[C@H](O)[C@@H](C)/C=C(\C)[C@H](OC(N)=O)[C@@H](OC)/C=C\C=C(/C)C(=O)N2 [Compound 15, HCl Salt of the Hydroquinone of 17-AAG] | 335 nM | 307 nM | 32 nM | – | 25 nM | 29 nM | – | 73 nM | active HSP90 inhibitors | 200 nM | 76% | 71% | > 200 mg/mL | 50% | 60% | 59%
